Assay results from patent US11203773B2, “Designer ribosomes and methods of use thereof for incorporating non-standard amino acids into polypeptides” (Yale University, priority 2016, dated 2021).

How the values were obtained:
E. coli PheRS [1] = target: T1, E. coli PheRS (Escherichia coli, UniProt P08312); test: Aminoacylation of 32P-tRNA with α- and β3-amino acids; type: biochemical; design: made in house; host or cells: E. coli BL21(DE3)
E. coli PheRS [2] = target: T1, E. coli PheRS; test: Deacylation assay of [32P]-aminoacyl-tRNA; type: biochemical; design: made in house; host or cells: E. coli BL21(DE3); conditions: deacylation of aminoacyl-tRNA, PheRS 500 nM, 25° C.
Description: (§3) Deacylation assays. Large scale (200 μL) aminoacylation reactions were initiated using the conditions described above (iv). The reactions were allowed to proceed for 1 h at 37° C., after which each reaction mixture was phenol/chloroform extracted. In each case, the aminoacylated tRNA product was ethanol precipitated, and the buffer was exchanged using a micro Bio-Spin 6 column (BioRad) following the procedure specified by the manufacturer and 100 mM HEPES (pH 8.0) containing 100 mM KCl. The precise extent of aminoacylation was calculated using the procedure described above; the 2 μM concentration corresponds to total aminoacylated tRNA. Assays were performed at 25° C. in a 50 μL reaction with 2 μM [^32P]-aminoacyl-tRNA in 100 mM HEPES (pH 7.0) containing 100 mM KCl and 15 mM MgCl2.

E. coli PheRS [3] = target: T1, E. coli PheRS; test: Adenylation of α- and β3-amino acids, pyrophosphate exchange assay
Description: (§4) Adenylation of α- and β-Amino Acids Catalyzed by E. coli PheRS, GlyRS, MetRS, and GluRS. […] Briefly, assay mixtures (50 μL) assembled at 25° C. contained the requisite α- or β^3-amino acid substrate (between 5 μM and 5 mM) in 100 mM HEPES (pH 7.0) containing 100 mM KCl, 15 mM MgCl2, 2 mM ATP, 0.5 mM NaPPi, and 50 μCi [^32P]-NaPPi). Reactions were initiated upon addition of enzyme (10 nM MetRS, 10 nM PheRS, or 50 nM GlyRS; 100 nM GluRS for reactions with α-Glu or 1.13 μM GluRS for reactions with β^3-Glu), incubated for various times (10 sec to 10 min), and halted by adding a 5 μL reaction aliquot to 100 μL quenching solution (10% charcoal, 0.5% HCl). 50 μL of 200 mM NaPPi in 1.5 N HCl was then added to each quenched reaction to decrease nonspecific binding of pyrophosphate to the charcoal. Each quenched reaction was then filtered through Whatman filter paper (number 3), previously washed with washing solution (200 mM NaPPi in 1 N HCl) using a 96-well BIO-DOT® apparatus (BioRad). Each well of the apparatus was then washed four times with 200 μL aliquots of washing solution (by pipetting washing solution up and down at least 10 times per wash) to minimize nonspecific binding of pyrophosphate to charcoal. Each experimental well was paired with an analogous control well (no-enzyme control) that lacked enzyme; a single membrane contained time points for both α- and β^3-amino acid substrates and all no-enzyme controls. The membrane was allowed to dry and was protected with a sheet of Microseal B adhesive seals (Biorad) prior to exposure to a BAS Storage Phosphor screen. Screens were imaged on a Typhoon 9500FLA biomolecule imager and the signal intensity of each dot was quantified using ImageJ to determine the relative amount of [^32P]-ATP formed as a function of time (Ctime). Each raw value were corrected by subtracting the intensity of the dot corresponding to the appropriate no-enzyme control (Cblank) and the resulting corrected values of Ccorr (representing the relative amounts of ^32P-ATP formed) were plotted as a function of time to determine values of relative ^32P-ATP formed per minute. Those values were divided by the concentration of enzyme used, and the data was plotted as relative specific activity (^32P-ATP formed min^−1×μM^−1 enzyme) and fitted using Prism by performing nonlinear regression using the least squares method and Equation 1 to obtain RSA (relative specific activity) and KM values (Equation 1 and Table 2).
(§5) In Equation 1, v is the apparent relative specific activity (relative ^32P-ATP formed per minute) obtained at each substrate concentration divided by the enzyme concentration, RSA is the relative specific activity, S is the concentration of substrate, and KM is the Michaelis-Menten constant.

E. coli GluRS [4] = target: T2, E. coli GluRS (Escherichia coli, UniProt P04805); test: Aminoacylation of 32P-tRNA with α- and β3-amino acids; type: biochemical; design: made in house; host or cells: E. coli BL21(DE3)
T2 sequence (P04805 whole entry): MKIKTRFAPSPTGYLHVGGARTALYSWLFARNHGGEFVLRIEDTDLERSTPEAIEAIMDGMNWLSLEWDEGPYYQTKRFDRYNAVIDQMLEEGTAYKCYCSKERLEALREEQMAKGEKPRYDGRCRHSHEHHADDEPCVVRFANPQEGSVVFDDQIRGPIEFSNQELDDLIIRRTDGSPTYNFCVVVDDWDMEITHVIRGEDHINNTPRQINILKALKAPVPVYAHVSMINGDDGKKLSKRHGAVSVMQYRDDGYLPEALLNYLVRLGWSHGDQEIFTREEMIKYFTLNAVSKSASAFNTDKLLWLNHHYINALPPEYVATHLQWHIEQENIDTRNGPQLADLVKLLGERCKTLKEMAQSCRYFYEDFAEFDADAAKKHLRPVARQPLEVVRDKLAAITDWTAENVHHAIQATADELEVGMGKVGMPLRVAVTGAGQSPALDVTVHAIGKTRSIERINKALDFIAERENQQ

E. coli GluRS [5] = target: T2, E. coli GluRS; test: Deacylation assay of [32P]-aminoacyl-tRNA; type: biochemical; design: made in house; host or cells: E. coli BL21(DE3); conditions: deacylation of aminoacyl-tRNA, GluRS 5.0 μM, 25° C.
Description: as §3

E. coli GluRS [6] = target: T2, E. coli GluRS; test: Adenylation of α- and β3-amino acids, pyrophosphate exchange assay
Description: as §4, §5

E. coli TyrRS [7] = target: T3, E. coli TyrRS (Escherichia coli, UniProt P0AGJ9); test: Adenylation of α- and β-Tyr, coupled MESG/PNP pyrophosphate release assay; type: biochemical
T3 construct: made in house; host or cells: E. coli BL21(DE3)
T3 sequence (P0AGJ9 1-424): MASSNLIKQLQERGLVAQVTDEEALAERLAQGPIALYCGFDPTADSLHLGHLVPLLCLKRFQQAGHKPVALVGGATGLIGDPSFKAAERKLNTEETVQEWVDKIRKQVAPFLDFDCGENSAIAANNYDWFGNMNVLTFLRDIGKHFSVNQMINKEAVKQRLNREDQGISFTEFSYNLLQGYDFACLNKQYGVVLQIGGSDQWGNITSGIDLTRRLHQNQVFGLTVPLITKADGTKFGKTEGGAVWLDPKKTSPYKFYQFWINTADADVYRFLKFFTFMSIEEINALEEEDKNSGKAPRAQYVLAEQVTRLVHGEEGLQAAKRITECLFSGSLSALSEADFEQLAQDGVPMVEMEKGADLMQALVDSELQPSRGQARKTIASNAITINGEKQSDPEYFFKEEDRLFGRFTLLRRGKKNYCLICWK
Excerpt: ii. Adenylation of α- and β-Tyr catalyzed by E. coli TyrRS. These reactions were monitored spectrophotometrically in a coupled assay using inorganic pyrophosphatase, 2-amino-6-mercapto-7-methylpurine ribonucleoside (MESG), and purine nucleoside phosphorylase (PNP) to monitor the rate of pyrophosphate release, according to the manufacturer's instructions (Enzcheck Pyrophosphate assay kit, Thermo Fisher Scientific). The assay measures the increase in absorbance at 360 nm due to MESG phosphorolysis, and two molecules of MESG are consumed per pyrophosphate generated. This direct assay could be employed for TyrRS because the rate of ATP hydrolysis (in the absence of amino acid substrate) was insignificant, which was not the case for the other synthetases which therefore required the more laborious pyrophosphate exchange assay described above. […] For TyrRS, kcat is the turnover number (units of reciprocal time) since the change in absorbance can be directly correlated to concentration of pyrophosphate formed.

E. coli TyrRS [8] = target: T3, E. coli TyrRS; test: Aminoacylation of 32P-tRNA with α- and β3-amino acids; type: biochemical
E. coli TyrRS [9] = target: T3, E. coli TyrRS; test: Deacylation assay of [32P]-aminoacyl-tRNA; type: biochemical; conditions: for krev (apparent rate of deacylation): deacylation of aminoacyl-tRNA, TyrRS 1 μM, 25° C.
Description: as §3

[10] = system: BL21(DE3) cells expressing 040329 ribosomes along with WT ribosomes; test: Expression of DHFR in 19/20 minimal media supplemented with amino acid (SDS-PAGE); type: cell-based, E. coli; conditions: 040329 + WT ribosomes, media supplemented with 1 mM of the amino acid
Excerpt: (§1) To evaluate the extent of in vivo β^3-amino acid incorporation, BL21 (DE3) cells were co-transformed via electroporation (vide infra) with two plasmids. […] The other plasmid encoded either the WT rrnb sequence (pLK35-rrnb), the 040329 mutant reported by Hecht (pLK35-040329.rrnb), or the P7A7 mutant (pLK35-P7A7.rrnb) identified during the puromycin sensitivity screen described above.
(§2) ii. β^3-amino acid incorporation. The subsequent protocol for in vivo β^3-amino acid incorporation employed minimal media and was adapted from procedures reported by Tirrell and Cropp (Liu, et al., Bioorg Med Chem Lett, 20:5613 (2010); Mandavi, et al., J Am Chem Soc, 135:2979 (2013)). Briefly, all 5 mL of the co-transformed cells prepared as described above were diluted into 100 mL of LB containing 50 ng/mL of kanamycin and […] of carbenicillin and grown to OD600=1.0, spun down, and then resuspended in 1/10th the original volume of 19/20 minimal media (10.5 g/L M9 salts, 0.1 mM CaCl2, 1 mM MgSO4, 1% glycerol, 100 μM of each amino acid (minus α-Phe), 25 mg/L thiamine, […] carbenicillin, 30 ng/mL kanamycin, 1 mM IPTG) supplemented with 1 mM of α-Phe or a β^3-Phe analog. Cells were grown overnight (18 h) at 37° C. while shaking (200 rpm). The cells were harvested by centrifugation (10 min at 4000×g) and resuspended in lysis buffer (50 mM NaH2PO4, 300 mM NaCl, 10 mM imidazole (pH 8.0)). Lysis was performed by sonication (Branson Sonifier 250) with 5 cycles of 20 s on, 20 s off. Lysed cells were then centrifuged for 20 min at 15000×g. The clarified cell lysate was incubated with Ni-NTA resin (Qiagen) for 1 h while gently rotating at 4° C. The Ni-NTA column was washed with lysis buffer prior to eluting proteins with elution buffer (50 mM NaH2PO4, 300 mM NaCl, 300 mM imidazole (pH 8.0)). Elutions were analyzed with SDS-PAGE to prepare material for in-gel trypsin digestions. Controls included side-by-side growths in (1) unsupplemented 19/20 minimal media, which contains only low levels of α-Phe present (negative control); (2). 19/20 minimal media supplemented with 1 mM α-Phe (positive control) and (3) and 19/20 minimal media supplemented with 1 mM β^3-Gly (negative control; β^3-aa that is not a β^3-Phe analog).

[11] = system: BL21(DE3) cells expressing P7A7 ribosomes along with WT ribosomes; test: as above; type: cell-based, E. coli; conditions: media supplemented with 1 mM of the amino acid
Excerpt: as §1, §2

[12] = system: BL21(DE3) cells expressing only WT ribosomes; test: as above; type: cell-based, E. coli; conditions: 19/20 minimal media supplemented with 1 mM of the amino acid
Excerpt: as §1, §2

[13] = system: DHFR position 128 translated in E. coli BL21 (DE3); test: Spectral counting (LC-MS/MS of tryptic peptides) of β3-(p-Br)Phe and α-Phe incorporation into DHFR in vivo; type: cell-based; conditions: spectral counting
Excerpt: as §1
as §2, with “19/20 minimal media supplemented with 1 mM α-Phe (positive control) and (3) and 19/20 minimal media supplemented with 1 mM β^3-Gly (negative control; β^3-aa that is not a β^3-Phe analog).” left out

T1 sequence (P08312 whole entry): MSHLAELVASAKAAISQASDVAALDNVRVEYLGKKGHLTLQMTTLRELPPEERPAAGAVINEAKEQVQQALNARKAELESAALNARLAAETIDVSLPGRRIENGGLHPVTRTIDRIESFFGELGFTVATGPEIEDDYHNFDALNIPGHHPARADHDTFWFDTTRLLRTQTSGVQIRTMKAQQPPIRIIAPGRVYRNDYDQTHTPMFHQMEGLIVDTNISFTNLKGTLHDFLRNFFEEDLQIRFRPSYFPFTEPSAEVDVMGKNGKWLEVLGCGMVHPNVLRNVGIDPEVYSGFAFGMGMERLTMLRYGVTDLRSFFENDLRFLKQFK
T1 sequence (P07395 whole entry partner): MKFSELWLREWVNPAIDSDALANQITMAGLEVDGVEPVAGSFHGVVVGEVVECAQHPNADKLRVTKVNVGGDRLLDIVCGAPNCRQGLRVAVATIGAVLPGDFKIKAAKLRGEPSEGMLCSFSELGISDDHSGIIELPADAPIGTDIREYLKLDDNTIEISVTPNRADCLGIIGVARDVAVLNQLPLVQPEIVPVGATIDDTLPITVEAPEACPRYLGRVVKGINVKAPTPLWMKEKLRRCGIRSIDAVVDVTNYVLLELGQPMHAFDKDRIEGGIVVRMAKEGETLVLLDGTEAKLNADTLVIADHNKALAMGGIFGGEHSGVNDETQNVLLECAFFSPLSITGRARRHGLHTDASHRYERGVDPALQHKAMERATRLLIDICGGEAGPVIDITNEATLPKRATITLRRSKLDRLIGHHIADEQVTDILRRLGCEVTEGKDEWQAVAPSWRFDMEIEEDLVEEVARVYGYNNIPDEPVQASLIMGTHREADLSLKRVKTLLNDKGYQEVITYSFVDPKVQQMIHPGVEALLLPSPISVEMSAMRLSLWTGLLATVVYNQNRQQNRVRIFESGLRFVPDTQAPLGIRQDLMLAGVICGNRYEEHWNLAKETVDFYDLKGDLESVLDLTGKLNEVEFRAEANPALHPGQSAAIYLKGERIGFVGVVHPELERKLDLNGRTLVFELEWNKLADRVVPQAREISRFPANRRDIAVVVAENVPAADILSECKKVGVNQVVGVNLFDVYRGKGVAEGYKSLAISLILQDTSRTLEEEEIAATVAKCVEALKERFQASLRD

For NC(CC(=O)O)Cc1ccccc1 (stereo not drawn) [β-Phe, β^3-phenylalanine], the Km (E. coli PheRS [1]) was 119 ± 51.5 µM, the kcat (E. coli PheRS [1]; 2 μM tRNA) was 0.004 ± 0.0005 s⁻¹ and the “krev (apparent rate of deacylation)” value (E. coli PheRS [2]) was 0.32 ± 0.03 min⁻¹. For the same molecule, the Km (E. coli PheRS [3]) was 300 ± 137 µM and the “kcat (min^−1) or RSA (^32P-ATP formed min^−1 enzyme μM^−1)” value (“kcat (min^−1) or RSA” for short) (E. coli PheRS [3]; RSA, 25° C., pH 7.0) was 41.6 ± 6.8 ^32P-ATP formed min^−1 enzyme μM^−1.

NC(CCC(=O)O)CC(=O)O (stereo not drawn) [β-Glu, β^3-glutamic acid] was tested, and the Km (E. coli GluRS [4]) was 375 ± 271 µM, the kcat (E. coli GluRS [4]; 2 μM tRNA) was 1.25e-05 ± 1.5e-06 s⁻¹ and the “krev (apparent rate of deacylation)” value (E. coli GluRS [5]) was 0.43 ± 0.15 min⁻¹. The Km (E. coli GluRS [6]) was 215 ± 110 µM and the “kcat (min^−1) or RSA” value (E. coli GluRS [6]; RSA, 25° C., pH 7.0) was 42.7 ± 5.8 ^32P-ATP formed min^−1 enzyme μM^−1.

With NC(CC(=O)O)Cc1ccc(O)cc1 (stereo not drawn) [β-Tyr, β^3-tyrosine] the Km (E. coli TyrRS [7]) was 450 µM, the “kcat (min^−1) or RSA” value (E. coli TyrRS [7]; kcat (turnover number)) was 0.027 ± 0.001 min⁻¹ and the Km (E. coli TyrRS [8]) was 340 ± 80.3 µM. For the same molecule, the kcat (E. coli TyrRS [8]; 2 μM tRNA) was 0.0208 ± 0.012 s⁻¹ and the “krev (apparent rate of deacylation)” value (E. coli TyrRS [9]) was 1.9 ± 0.6 min⁻¹.

For NC(CC(=O)O)Cc1ccc(Br)cc1 (stereo not drawn) [β^3-(p-Br)Phe], the “level of DHFR” value [10] was “significant levels”, the “level of DHFR” value [11] was “highest levels” and the “amount of DHFR generated” value [12] was “trace amounts”. The “lower incorporation of β^3-(p-Br)Phe relative to α-Phe” value ([13]; cells expressing 040329 ribosomes) was 30 fold and the “lower incorporation of β^3-(p-Br)Phe relative to α-Phe” value ([13]; cells expressing P7A7 ribosomes) was 10 fold.

In the case of N[C@@H](Cc1ccc(O)cc1)C(=O)O [α-Tyr, Tyrosine], the “Ratio (α-/β-) of KM” value (E. coli TyrRS [7]) is reported as 0.047 ± 0.03, the “Ratio (α-/β-) of kcat” value (E. coli TyrRS [7]) is reported as 46.2 ± 7.7 and the “Ratio (α-/β-) of kcat/KM” value (E. coli TyrRS [7]) is reported as 972.6 ± 632.0. The “Ratio (α/β) of kcat” value (E. coli TyrRS [8]) was 56.3 ± 6.8, the “Ratio (α/β) of kcat/KM” value (E. coli TyrRS [8]) was 1541.7 ± 724.3 and the “krev (apparent rate of deacylation)” value (E. coli TyrRS [9]) was 1.9 ± 1.3 min⁻¹. For the same molecule, the “Ratio (α/β) of krev” value (E. coli TyrRS [9]; deacylation, TyrRS) was 1.01 ± 0.75.
